Calls of active or inactive are those of the source.
Key:
[1] = general mammalian cell viability loss – activator set, cherry-pick, cytotoxicity control for miR-122 modulator project, dose response (AID 720690); assay type: functional, cell-based;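 also: HEK293T human cells scored for general mammalian cytotoxicity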
[2] = general mammalian cell viability loss – inhibitor set, cherry-pick, set 2, cytotoxicity control for miR-122 modulator project, dose response (AID 720697); assay type: functional, cell-based
BJ [3] = assay: BJ-TERT-LT-ST fibroblast viability loss – cell-based, RAS-independent, luminescence, dose response (AID 1935); assay type: functional; details: Homo sapiens;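 also: BJ fibroblasts immortalized with TERT plus LT and ST oncogenes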
[4] = HEK-293T cell viability reduction – luminescence, B-cell screen hits, cytotoxicity control for BCR NF-kB inhibitor project, dose response (AID 489021); assay type: functional, cell-based;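 also: HEK-293T cells carrying an NF-kB luciferase reporter; cells exposed to compound for about 14 hours before viability readout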
Streptokinase A = molecular target: T1, Streptokinase A (Streptococcus pyogenes serotype M1, UniProt P10520); assay: viability-normalized secreted streptokinase activity reduction – plasminogen activation absorbance, OD405, dose response (AID 1914); assay type: functional, Streptococcus pyogenes M1 GAS;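 also: secreted streptokinase activity via plasminogen activation per viability signal from cell pellet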
T1 sequence (P10520 whole entry): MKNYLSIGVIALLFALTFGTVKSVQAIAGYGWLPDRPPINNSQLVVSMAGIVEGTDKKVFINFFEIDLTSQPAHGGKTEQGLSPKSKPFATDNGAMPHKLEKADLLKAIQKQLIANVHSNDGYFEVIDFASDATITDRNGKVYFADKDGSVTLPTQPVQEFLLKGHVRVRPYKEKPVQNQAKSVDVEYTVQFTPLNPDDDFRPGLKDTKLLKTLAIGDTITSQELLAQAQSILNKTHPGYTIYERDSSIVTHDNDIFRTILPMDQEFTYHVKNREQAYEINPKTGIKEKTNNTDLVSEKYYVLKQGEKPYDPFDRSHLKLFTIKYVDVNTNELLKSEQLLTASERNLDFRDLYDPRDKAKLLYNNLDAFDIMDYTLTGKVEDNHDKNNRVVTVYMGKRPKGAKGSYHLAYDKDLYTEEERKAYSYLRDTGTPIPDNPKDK

[5] = DRD fibroblast viability loss – cell-based, non-viral oncogenic, luminescence, dose response (AID 1934); assay type: functional; details: Homo sapiens
[6] = reduced cellular PGC1a acetyl-lysine signal – cell-based, cherry-picked samples, dose response (AID 720514); assay type: functional;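 also: potency may reflect raised or lowered acetylation signal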
BJ [7] = assay: cells; assay type: functional, cell-based; details: Homo sapiens
INS1 = assay: INS-1E survival protection against cytokine death – cell-based, luminescence, retest, dose response (AID 449756); assay type: functional; details: Rattus norvegicus;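 also: cell death triggered by IL-1 beta plus TNF-alpha plus IFN-gamma mixture; protective hits raise ATP signal compared with cytokine alone wells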
BJ [8] = assay: BJ-TERT fibroblast viability loss – cell-based, RAS-independent, luminescence, dose response (AID 1933); assay type: functional; details: Homo sapiens
[9] = non-specific 3'UTR reporter inhibition in Clone20-Shn3RL – cell-based, Renilla luciferase, cherry-picked, counter-screen for Shn3 inhibitor project, dose response (AID 624133); assay type: functional
[10] = system: Streptococcus sp. 'group A'; assay: Streptococcus pyogenes SK(-)GAS viability under kanamycin – luminescence, BacTiterGlo, confirmation, counter-screen for streptokinase expression inhibitor project, dose response (AID 1900); assay type: functional, organism-based
[11] = activation of miR-122 Renilla sensor silencing – cell-based, Huh7 psiCHECK-miR122, Renilla luciferase, cherry-picked, dose response (AID 651956); assay type: functional;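 also: huh7 hepatoma cells stably carrying a psiCHECK-2 miR-122 sensor plasmid; renilla luciferase signal reporting endogenous miR-122 activity after 48 h compound exposure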
[12] = reduction of Shn3 3'UTR-driven luciferase in osteoblasts – cell-based, Clone20 osteoblasts, firefly luciferase, cherry-picked, dose response (AID 624132); assay type: functional;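 also: firefly luciferase luminescence from reporter carrying the Shn3 3'UTR in osteoblasts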
Streptococcus = assay: GAS UMAA2166 growth inhibition – luminescence, BacTiterGlo, counter-screen for streptokinase expression inhibitor project, dose response (AID 1915); assay type: functional, organism-based;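 also: potency for reduction of bacterial viability or growth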
[13] = loss of viability in HepG2 cells – cell-based, CellTiter-Glo, cherry-picked, cytotoxicity control for Shn3 inhibitor project, dose response (AID 624134); assay type: functional
Major prion protein = Major prion protein (Homo sapiens, UniProt P04156); assay type: functional, cell-based
[14] = molecular target: T2, DNA repair and recombination protein RAD54-like (Homo sapiens, UniProt Q92698); assay: RAD54 Holliday junction migration blockers – biochemical, fluorescence, cherry-picked samples, dose series, confirmation (AID 651657); assay type: functional
T2 sequence (Q92698 whole entry): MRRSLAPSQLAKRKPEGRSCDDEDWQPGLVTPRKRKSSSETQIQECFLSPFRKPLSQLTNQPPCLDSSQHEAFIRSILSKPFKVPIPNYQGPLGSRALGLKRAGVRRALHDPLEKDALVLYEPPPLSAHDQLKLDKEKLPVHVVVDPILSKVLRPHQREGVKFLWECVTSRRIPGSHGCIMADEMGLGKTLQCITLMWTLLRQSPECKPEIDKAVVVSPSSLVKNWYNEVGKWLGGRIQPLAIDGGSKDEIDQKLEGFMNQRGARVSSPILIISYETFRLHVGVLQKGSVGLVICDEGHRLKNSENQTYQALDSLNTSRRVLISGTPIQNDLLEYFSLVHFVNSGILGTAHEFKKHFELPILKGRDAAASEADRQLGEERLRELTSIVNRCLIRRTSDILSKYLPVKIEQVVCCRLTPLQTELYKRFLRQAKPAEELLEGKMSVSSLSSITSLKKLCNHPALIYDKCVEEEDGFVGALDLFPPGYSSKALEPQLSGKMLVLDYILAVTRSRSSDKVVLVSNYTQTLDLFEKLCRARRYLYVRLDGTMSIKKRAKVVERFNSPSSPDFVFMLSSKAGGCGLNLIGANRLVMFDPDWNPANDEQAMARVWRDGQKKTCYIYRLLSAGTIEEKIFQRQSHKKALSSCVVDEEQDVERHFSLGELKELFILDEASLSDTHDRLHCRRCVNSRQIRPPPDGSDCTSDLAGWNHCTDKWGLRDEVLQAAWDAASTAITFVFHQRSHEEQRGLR

[15] = molecular target: Endoplasmic reticulum aminopeptidase 1 (Homo sapiens, UniProt Q9NZ08); assay: inhibition of human ERAP1 enzyme activity – biochemical, cherry-pick, set 2, plate reader, dose response (AID 743314)
[16] = molecular target: T3, Sentrin-specific protease 8 (Homo sapiens, UniProt Q96LD8); assay type: functional
T3 sequence (Q96LD8 whole entry): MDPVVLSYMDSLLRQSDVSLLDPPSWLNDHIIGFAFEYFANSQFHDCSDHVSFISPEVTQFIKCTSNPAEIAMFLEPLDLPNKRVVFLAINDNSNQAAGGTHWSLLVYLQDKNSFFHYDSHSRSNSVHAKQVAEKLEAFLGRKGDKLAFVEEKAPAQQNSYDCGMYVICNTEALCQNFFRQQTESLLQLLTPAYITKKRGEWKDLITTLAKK

[17] = molecular target: T3, Sentrin-specific protease 8; assay type: functional; remark: listed apart in the source
Protein RecA = molecular target: T4, Protein RecA (Mycobacterium tuberculosis, UniProt P9WHJ3); assay: Fluorescence Cell-Free Homogeneous Dose Retest to Identify Inhibitors of RecA-Intein Splicing Activity. [Related pubchem assays (depositor defined):AID2097, AID2223, AID489010, AID492950]; assay type: functional
T4 sequence (P9WHJ3 whole entry): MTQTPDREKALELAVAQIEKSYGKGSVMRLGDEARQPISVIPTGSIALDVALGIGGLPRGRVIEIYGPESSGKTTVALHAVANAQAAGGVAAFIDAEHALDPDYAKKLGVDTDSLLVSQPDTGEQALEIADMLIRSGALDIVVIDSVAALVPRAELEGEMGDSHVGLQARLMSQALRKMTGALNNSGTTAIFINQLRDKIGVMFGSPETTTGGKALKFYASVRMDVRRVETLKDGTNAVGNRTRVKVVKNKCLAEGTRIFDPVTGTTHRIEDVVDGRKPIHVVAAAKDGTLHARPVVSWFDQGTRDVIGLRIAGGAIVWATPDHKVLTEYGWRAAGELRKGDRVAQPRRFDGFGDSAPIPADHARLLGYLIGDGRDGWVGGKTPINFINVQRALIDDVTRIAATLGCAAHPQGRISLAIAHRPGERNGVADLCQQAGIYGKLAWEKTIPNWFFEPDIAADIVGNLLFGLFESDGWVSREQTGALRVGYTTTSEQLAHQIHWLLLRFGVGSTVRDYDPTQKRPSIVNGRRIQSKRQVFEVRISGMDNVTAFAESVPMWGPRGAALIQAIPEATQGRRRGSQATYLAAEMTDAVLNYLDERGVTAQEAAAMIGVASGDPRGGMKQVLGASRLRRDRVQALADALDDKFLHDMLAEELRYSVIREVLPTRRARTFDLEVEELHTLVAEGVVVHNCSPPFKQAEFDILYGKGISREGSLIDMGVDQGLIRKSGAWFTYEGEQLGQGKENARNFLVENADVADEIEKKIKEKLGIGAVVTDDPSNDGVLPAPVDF

[18] = molecular target: T5, Replicative DNA helicase DnaB (Mycobacterium tuberculosis, UniProt P9WMR3); assay: DnaB intein splicing inhibitors, dose response, biochemical, cell-free fluorescence (AID 449749); assay type: functional
T5 sequence (P9WMR3 whole entry): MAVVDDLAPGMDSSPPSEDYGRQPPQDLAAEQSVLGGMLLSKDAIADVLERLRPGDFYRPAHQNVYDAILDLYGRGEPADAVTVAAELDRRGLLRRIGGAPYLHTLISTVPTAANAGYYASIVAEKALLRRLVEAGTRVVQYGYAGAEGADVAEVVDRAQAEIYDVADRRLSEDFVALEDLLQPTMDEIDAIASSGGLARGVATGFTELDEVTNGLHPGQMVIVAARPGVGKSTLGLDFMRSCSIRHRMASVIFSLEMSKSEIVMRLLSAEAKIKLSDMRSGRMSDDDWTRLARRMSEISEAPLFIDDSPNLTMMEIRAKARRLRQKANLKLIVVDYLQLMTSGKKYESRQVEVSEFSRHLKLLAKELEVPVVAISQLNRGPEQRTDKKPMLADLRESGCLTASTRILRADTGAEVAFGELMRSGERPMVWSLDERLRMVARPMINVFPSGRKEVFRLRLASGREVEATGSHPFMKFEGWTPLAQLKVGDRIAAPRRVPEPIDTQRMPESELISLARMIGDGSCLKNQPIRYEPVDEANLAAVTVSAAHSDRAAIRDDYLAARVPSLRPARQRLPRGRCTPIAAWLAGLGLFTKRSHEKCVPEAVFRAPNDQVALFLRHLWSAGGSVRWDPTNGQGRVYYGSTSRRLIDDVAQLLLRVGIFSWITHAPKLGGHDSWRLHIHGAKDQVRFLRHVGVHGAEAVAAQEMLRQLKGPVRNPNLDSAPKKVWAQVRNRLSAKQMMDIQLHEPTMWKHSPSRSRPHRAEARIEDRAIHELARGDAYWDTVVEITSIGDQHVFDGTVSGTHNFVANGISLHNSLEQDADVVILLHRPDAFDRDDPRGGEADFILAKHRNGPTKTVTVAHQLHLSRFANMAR

[19] = molecular target: Tyrosyl-DNA phosphodiesterase 2 (Homo sapiens, UniProt O95551); assay: potency against TDP2 phosphodiesterase activity – biochemical, epi absorbance, IC50, dose response (AID 743297)
Chain of Tyrosyl-DNA phosphodiesterase 2 (O95551 whole entry): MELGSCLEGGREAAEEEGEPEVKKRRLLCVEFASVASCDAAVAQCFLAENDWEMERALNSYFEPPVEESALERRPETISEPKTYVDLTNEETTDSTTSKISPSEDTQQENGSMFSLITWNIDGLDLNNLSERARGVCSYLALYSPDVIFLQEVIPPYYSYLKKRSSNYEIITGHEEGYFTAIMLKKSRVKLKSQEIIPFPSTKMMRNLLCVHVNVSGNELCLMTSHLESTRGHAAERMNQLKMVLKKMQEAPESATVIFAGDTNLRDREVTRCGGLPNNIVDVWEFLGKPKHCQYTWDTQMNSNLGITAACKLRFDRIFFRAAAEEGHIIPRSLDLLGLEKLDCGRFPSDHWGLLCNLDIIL

Chain of Endoplasmic reticulum aminopeptidase 1 (Q9NZ08 whole entry): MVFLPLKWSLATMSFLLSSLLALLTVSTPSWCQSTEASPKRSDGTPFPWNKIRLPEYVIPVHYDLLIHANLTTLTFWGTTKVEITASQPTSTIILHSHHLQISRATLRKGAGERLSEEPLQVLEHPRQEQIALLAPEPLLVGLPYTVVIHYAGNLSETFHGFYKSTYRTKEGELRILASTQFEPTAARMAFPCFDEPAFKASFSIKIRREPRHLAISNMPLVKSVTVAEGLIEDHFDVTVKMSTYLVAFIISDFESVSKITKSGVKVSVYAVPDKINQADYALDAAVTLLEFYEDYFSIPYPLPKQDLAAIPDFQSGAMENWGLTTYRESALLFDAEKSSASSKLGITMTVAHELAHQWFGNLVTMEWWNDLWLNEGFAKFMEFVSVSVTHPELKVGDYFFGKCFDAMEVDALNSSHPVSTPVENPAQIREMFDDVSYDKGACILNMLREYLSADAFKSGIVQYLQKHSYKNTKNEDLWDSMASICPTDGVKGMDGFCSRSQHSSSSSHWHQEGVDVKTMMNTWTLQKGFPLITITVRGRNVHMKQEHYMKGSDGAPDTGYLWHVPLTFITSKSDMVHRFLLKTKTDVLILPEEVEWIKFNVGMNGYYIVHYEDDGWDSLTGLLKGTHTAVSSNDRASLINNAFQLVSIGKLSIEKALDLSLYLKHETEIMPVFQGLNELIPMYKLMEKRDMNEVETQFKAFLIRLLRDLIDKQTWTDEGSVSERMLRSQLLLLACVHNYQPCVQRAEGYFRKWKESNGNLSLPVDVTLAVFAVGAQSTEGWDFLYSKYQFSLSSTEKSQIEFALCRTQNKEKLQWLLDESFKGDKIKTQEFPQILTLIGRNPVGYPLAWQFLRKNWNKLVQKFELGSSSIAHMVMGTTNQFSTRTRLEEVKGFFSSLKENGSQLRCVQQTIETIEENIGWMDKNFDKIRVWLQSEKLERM

COc1cccc(NC(=O)N[C@H]2CC[C@H](CC(=O)Nc3ccc(-c4ccccc4)cc3)O[C@@H]2CO)c1
AC50 [1]: 44.3 µM (active)
AC50 [2]: 479 nM (active)

COc1cccc(N2CCN(c3[nH]cnc4c5cc(F)ccc5nc3-4)CC2C)c1 (stereo not drawn)
AC50 [1]: 3.35 µM (active)
EC50 (BJ [3]): 8.16 µM (active)
IC50 [4]: 1.83 µM (active)
EC50 (Streptokinase A): 15.3 µM (active)
EC50 [5]: 6.44 µM (active)
AC50 [6]: 6.56 µM (active)
EC50 (BJ [7]): 9.04 µM (active)
AC50 (INS1): 2.25 µM (active)
EC50 (BJ [8]): 6.14 µM (inconclusive)
AC50 [9]: 490 nM (active)
EC50 [10]: 8 µM (active)
AC50 [2]: 3060 nM (active)
AC50 [11]: 6.99 µM (active)
AC50 [12]: 1.31 µM (active)
EC50 (Streptococcus): 48.4 µM (active)
AC50 [13]: 9.99 µM (active)

NC(=O)COC(=O)CC(NC(N)=O)c1ccc(Cl)cc1 (stereo not drawn)
AC50 [6]: 28.7 µM (active)

CCOC(=O)C(CC)Sc1cc(C)nc2ccc(OC)cc12 (stereo not drawn)
IC50 (cells): > 138 µM (inactive)
IC50 (Major prion protein): 5.29 µM (active)

CN1CCCC1CCNc1ccc2c(=O)c3ccccc3oc2c1 (stereo not drawn)
AC50 [14]: 21.1 µM (active)
AC50 [15]: 4.52 µM (active)

COC(=O)c1ccccc1-c1ccc(C(c2c(C)n[nH]c2O)c2c(C)n[nH]c2O)o1
IC50 [16]: 8.91 µM (active)
IC50 [17]: 18.6 µM (active)
EC50 (Protein RecA): 214 nM (active)
AC50 [18]: 279 nM (active)
IC50 [19]: 51.2 µM (inactive)
